Laboratory results reported in patent publication US4906661A, “Esters of aryloxypropanolamine derivatives” (E. I. Du Pont de Nemours and Company, priority 1989, dated 1990).
“And” between values parts separate entries of the source, which are not always exact repeats. Identical values can stand only once.

Legend:
[1] = molecular target: β1 receptors, guinea pig right atria (Cavia porcellus, UniProt H0W3H1); experiment: cell-based; conditions: Table I; guinea pig right atria, vs isoproterenol; -log KB; read-out: PA2 Rt. Atria (converted)
Protocol: Each tissue was suspended between a fixed glass rod and a Statham Universal Transducer connected to a Beckman recorder. Atria were allowed to beat spontaneously under a loading tension of approximately 0.5 gm. Intrinsic depressant or stimulant activity was determined for each compound by progressively increasing concentrations in the tissue baths at 60-minute intervals. Tissues were not washed between increments. The maximum concentration showing little or no cardiodepressant activity was chosen for blockade experiments. Changes in rate in response to isoproterenol, a standard β-receptor agonist, were measured in the absence and presence of test compounds. Spiral strips of guinea pig trachea were suspended under 5 gm resting tension and incubated with phentolamine, tropolone and cocaine. Active tension was generated by addition of carbachol (3.0×10^-7 M) and decreases in tension in response to isoproterenol were quantitated. Cumulative concentration-response curves were produced with isoproterenol both before and after 60-minute incubation of test compounds with atria and trachea. […] The blocking potency of test compounds was estimated by computing pA2 values (-log KB) by the method of Furchgott, the Pharmacological Differentiation of Adrenergic Receptors, Ann. […] The degree of cardioselectivity was estimated from the ratio, KB trachea/KB atria (10^(pA2 atria-pA2 trachea)). A ratio greater than one indicates cardioselectivity. Test drugs were dissolved in distilled water and added to the bath (30 ml) in a volume of 10 or 100 μl.

[2] = test system: β-adrenergic receptors, guinea pig trachea vs right atria; experiment: Cardioselectivity, KB trachea/KB atria; type: cell-based; conditions: 10^(pA2 atria-pA2 trachea); ratio greater than one indicates cardioselectivity
Protocol: Each tissue was suspended between a fixed glass rod and a Statham Universal Transducer connected to a Beckman recorder. Atria were allowed to beat spontaneously under a loading tension of approximately 0.5 gm. Intrinsic depressant or stimulant activity was determined for each compound by progressively increasing concentrations in the tissue baths at 60-minute intervals. Tissues were not washed between increments. The maximum concentration showing little or no cardiodepressant activity was chosen for blockade experiments. Changes in rate in response to isoproterenol, a standard β-receptor agonist, were measured in the absence and presence of test compounds. Spiral strips of guinea pig trachea were suspended under 5 gm resting tension and incubated with phentolamine, tropolone and cocaine. Active tension was generated by addition of carbachol (3.0×10^-7 M) and decreases in tension in response to isoproterenol were quantitated. Cumulative concentration-response curves were produced with isoproterenol both before and after 60-minute incubation of test compounds with atria and trachea. […] The degree of cardioselectivity was estimated from the ratio, KB trachea/KB atria (10^(pA2 atria-pA2 trachea)). A ratio greater than one indicates cardioselectivity. Test drugs were dissolved in distilled water and added to the bath (30 ml) in a volume of 10 or 100 μl.

[3] = test system: heart rate response to isoproterenol; experiment: Duration and potency of beta-blocking action in vivo, 3-hour infusion in anesthetized dogs, isoproterenol challenge; parameters: species or system dog; conditions: Table II; for Recovery Time 50%: 50% recovery from β-blockade after termination of infusion; for Recovery Time 80%: 80% recovery from β-blockade after termination of infusion; for % I, percent inhibition of heart rate response to isoproterenol: end of 3-hour infusion, isoproterenol 0.5 μg/kg
Protocol: The duration of β-blockade was determined In vivo using pentobarbital-anesthetized dogs instrumented for measurement of heart rate using a Beckman cardiotachometer triggered electronically by a phasic aortic blood pressure signal. Both vagus nerves were served in the cervical region and the animals were mechanically ventilated. The experimental design used employed a 3-hour infusion of test compound. Bolus doses of isoproterenol (0.5 μg/kg) were used to assess the degree of β-blockade and recovery from β-blockade after […] of the infusion. The doses were spaced at 10-minute intervals and were given before, during and following the infusion of test compounds. The infusion rate was adjusted so that at the end of the 3-hour infusion period the degree of isoproterenol inhibition averaged about 50% of control. Following termination of blocker infusion, percent recovery from β-blockade was computed and the time associated with 80% recovery estimated.
^c Time in minutes for 50% recovery from 50% blockade levels after 3
Infusions of drug. Number of experiments is equal to or greater than thre
for each compound unless noted otherwise. Tabulated data are mean values
^c The betablocking activities were evaluated Invivo in a canine
model. The betablocker was infused in the animal for 3 hours with the dos
adjusted to give approximately 50%. blockage of the Isoproternolinduced
tachycardia. The infusion was then terminated and the time required for
80% recovery of blockade was recorded as duration of action of the
compound. The amount of drug infused during the 3 hours was averaged and
expressed as potency in ug/kg/min.

[4] = Enzymatic hydrolysis by dog liver homogenate (procedure C); type: in vitro ADME; conditions: for remaining at 1 h / remaining at 2 h / half-life: dog, liver homogenate; for remaining at 1 h / remaining at 2 h: 37° C., procedure C; for remaining at 1 h: read-out: % Drug remaining, 1 HR, dog liver homogenate; for remaining at 2 h: read-out: % Drug remaining, 2 HR, dog liver homogenate; for half-life: approximate value, determined by procedure C, read-out: T1/2 dog liver homogenate
Source text: Chemicals--Acetonitrile was "HPLC" grade. Distilled water was used to dissolve the compounds and 0.01 N HCl was used to dissolve compounds requiring an acidic pH for dissolution. Enzyme Source--Fresh aqueous humor was collected from eyes of dogs using a 23-gauge needle while fresh dog blood was collected into heparinized Vacutainer tubes. Fresh liver was homogenized in 0.9% NaCl using a Potter-Elvehjem Teflon pestle and glass homogenizer to make a 25% (W/V) homogenate. […] Denatured tissue controls were prepared by adding 2.0 ml of acetonitrile into 0.5 ml of aqueous humor, blood, or liver homogenate to destroy esterase activities prior to addition of the β-blockers. These controls were then incubated at 37° C. for 120 min. […] Sample Processing and Data Analyses--All samples were centrifuged at 4000 RPM for 10 min to sediment denatured proteins. The resultant supernatants were transferred to WISP.cndot. vials and analyzed using an HPLC assay developed for beta blockers. The hydrolysis of β-blockers by aqueous humor, blood, and liver homogenate was determined by disappearance of the compounds. The extent of enzymatic hydrolysis by each tissue was determined by comparing the amount of each compound (absolute peak area) recovered at each time point to the amount of each compound (absolute peak area) in denatured tissue control and aqueous control samples.

[5] = Half-life in dog whole blood (procedure D); type: in vitro ADME; conditions: 37° C., read-out: T1/2 dog blood
Protocol: (§1) In each experiment, 1 ml of a solution containing 50 μg of the test compound was added to 1 ml of whole blood or 1 ml of a 33% (w/v) liver homogenate. The samples were incubated in a Dubnoff shaking metabolic incubator for 2.5, 5.0, 10.0, 20.0, 30.0 and 60.0 minutes at 37° C. At the designated time periods, the test mixtures were removed from the incubator and transferred to a 0° C. ice bath. Acetonitrile (2 ml) was immediately added and the mixtures were mixed to stop enzymatic hydrolysis. Zero time samples were prepared by adding 2 ml of acetonitrile to denature the proteins prior to addition of the test compounds. After centrifugation to sediment denatured proteins, 2 ml of the supernatant was removed and analyzed by high pressure liquid chromatography, using a mobile phase of 60% acetonitrile/40% 0.05 M sodium phosphate buffer (pH 6.6), a U.V. detector and Waters μ Bondapak Phenyl column.
(§2) The half life of each test compound was determined graphically by plotting the decrease in concentrations as a function of time.

[6] = Half-life in dog liver homogenate (procedure D); type: in vitro ADME; conditions: 37° C., read-out: T1/2 dog liver homogenate
Protocol: as §1, §2

Sequence of β1 receptors, guinea pig right atria (H0W3H1 1-470): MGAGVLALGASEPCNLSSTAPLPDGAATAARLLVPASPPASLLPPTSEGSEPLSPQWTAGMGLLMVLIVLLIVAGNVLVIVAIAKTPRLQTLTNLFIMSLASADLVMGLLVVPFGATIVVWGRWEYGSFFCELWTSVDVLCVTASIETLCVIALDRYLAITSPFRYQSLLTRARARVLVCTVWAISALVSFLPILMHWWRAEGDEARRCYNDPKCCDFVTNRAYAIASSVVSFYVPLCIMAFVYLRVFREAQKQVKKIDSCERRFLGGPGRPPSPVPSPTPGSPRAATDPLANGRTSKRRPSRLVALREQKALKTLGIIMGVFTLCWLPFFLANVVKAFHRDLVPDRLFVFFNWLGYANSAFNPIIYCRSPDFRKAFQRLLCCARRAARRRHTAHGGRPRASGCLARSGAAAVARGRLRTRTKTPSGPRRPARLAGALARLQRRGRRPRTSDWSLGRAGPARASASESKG

Structure (SMILES) | Kb [1] [nM] | Cardioselectivity KB (Trachea)/KB (Atria) [2] | Recovery Time 50% [3] | Recovery Time 80% [3] | % I, percent inhibition of heart rate response to isoproterenol [3] | remaining at 1 h [4] [%] | remaining at 2 h [4] [%] | half-life [4] [h] | half-life [5] [h] | half-life [6] [h] | hydrolysis in liver homogenate ([4]; within 60 minutes)
COC(=O)c1ccccc1OCC(O)CNCCNC(=O)Cc1ccccc1 (stereo not shown) [III, Methyl 2-[2-Hydroxy-3-[N-[2-(phenylacetamido)ethyl]amino]propoxy]benzoate] | 5.01 | 4 | 20 min and 19 min | 40 min and 45 min | 57% and 60% | 0 | 0 | < 1 | 1.22 ± 0.267 | 2.15 | 
COC(=O)c1ccccc1OCC(O)CNCCNC(C)=O (stereo not shown) [Example I, Methyl 2-[2-Hydroxy-3-[N-2(-acetamidoethyl)amino]propoxy]benzoate] | 50.1 | 2 | 8 ± 1 min | 18 ± 1 min | 54 ± 2% | 0 | 0 | < 1 | 1.03 ± 0.133 | 2.78 | completely hydrolyzed
COC(=O)c1ccccc1OCC(O)CNCCNC(=O)C(C)C (stereo not shown) [II, Methyl 2-[2-Hydroxy-3-[N-[2-(2-methylpropionamido)ethyl]amino]propoxy]benzoate] | 7.94 | 4 | 7 ± 1 min | 17 ± 1 min | 59 ± 2% | 0 | 0 | < 1 | 1.03 ± 0.05 | > 3 | 
